Source: US12703686B2, “4-Methoxy-2-phenethyl isoindoline-1-one derivative and composition for treating neurological diseases, comprising same” (CNG BIO CO., LTD., priority 2020, dated 2026)

Key:
BV2 cells (microglia) = assay: NO production in LPS-stimulated BV2 cells (Griess reaction), antineuritic activity; assay type: cell-based; conditions: 10 NM, 100 ng/ml LPS for 24 hours, FIG. 13
Experimental: In order to confirm the change in NO production and the effect on cell viability when BV2 cells were treated with the compounds of the present invention, the following experiments were performed. L-NMMA (NG-monomethyl-L-arginine), an NO synthesis inhibitor, was used as a positive control group.
Analysis of NO production for evaluation of antineuritic activity BV2 cells (microglia) were dispensed in DMEM culture solution at a concentration of 6×10^4 cells/well in a 96 well plate, and then treated with the compounds of Formulas 6, 7, and 8 at a concentration of 10 NM, and incubated for 24 hours. After 24 hours, each sample was treated with a concentration of 10 NM, reacted for 1 hour, and then stimulated with 100 ng/ml of LPS for 24 hours. The production of nitrite, a soluble oxidation product of NO (nitric oxide), was measured in the culture medium through the Griess reaction.

C6 glioma cells = assay: Ability to promote increase of nerve growth factor (NGF) in C6 glioma cells, ELISA; assay type: cell-based, Rat; conditions: 10 μM, 24 hours, FIG. 9
Experimental: In order to measure the amount of nerve growth factor (NGF) produced in the cell medium and to confirm the effect on cell viability when cells were treated with the compounds of the present invention, the following experiments were performed.
Rat astrocyte-derived C6 glioma cells were dispensed in DMEM culture solution at a concentration of 1×10^5 cells/well in a 24 well plate and stabilized overnight, and then treated with the compounds of Formulas 3, 6, 7, and 8 at a concentration of 10 μM, and reacted in a 37° C. incubator for 24 hours. The treated medium was collected and centrifuged, and then absorbance was measured using an enzyme linked immunoassay kit (ELISA kit).

## COc1cc(O)c(CCCO)c2c1CN(CCc1ccccc1)C2=O [Formula 8, 6-hydroxy-7-(3-hydroxypropyl)-4-methoxy-2-phenethyl isoindolin-1-one]
BV2 cells (microglia)
  NO production (nitrite) compared to untreated control group: reduced

## C=CCc1c(O)cc(OC)c2c1C(=O)N(CCc1ccccc1)C2 [Formula 3, 7-allyl-6-hydroxy-4-methoxy-2-phenethyl isoindolin-1-one]
C6 glioma cells
  nerve growth factor produced in the cell medium: significantly excellent

## COc1cc(O)c(CCN(C)C)c2c1CN(CCc1ccccc1)C2=O [Formula 7, 7-(2-(dimethylamino)ethyl)-6-hydroxy-4-methoxy-2-phenethyl isoindolin-1-one]
C6 glioma cells
  nerve growth factor produced in the cell medium: significantly excellent
BV2 cells (microglia)
  NO production (nitrite) compared to untreated control group: reduced

## COc1cc(O)c(CCO)c2c1CN(CCc1ccccc1)C2=O [Formula 6, 6-hydroxy-7-(2-hydroxyethyl)-4-methoxy-2-phenethyl isoindolin-1-one]
BV2 cells (microglia)
  NO production (nitrite) compared to untreated control group: reduced
